From BigSolDB 2.1

In the case of `O=[N+]([O-])c1cccc(Cl)c1Cl`, the solubility (mole fraction) (in ethanol, 278.15 K) is reported as 0.013, the solubility (mole fraction) (in ethanol, 280.65 K) is reported as 0.0149 and the solubility (mole fraction) (in ethanol, 283.15 K) is reported as 0.0172. For the same compound, the solubility (mole fraction) (in ethanol, 285.65 K) was 0.0203, the solubility (mole fraction) (in ethanol, 288.15 K) was 0.0231 and the solubility (mole fraction) (in ethanol, 290.65 K) was 0.0257. The solubility (mole fraction) (in ethanol, 293.15 K) was 0.0286, the solubility (mole fraction) (in ethanol, 295.65 K) was 0.0322 and the solubility (mole fraction) (in ethanol, 298.15 K) was 0.0366. The solubility (mole fraction) (in ethanol, 300.65 K) was 0.0418, the solubility (mole fraction) (in ethanol, 303.15 K) was 0.0465 and the solubility (mole fraction) (in methanol, 278.15 K) was 0.0122. It also gave a solubility (mole fraction) (in methanol, 280.65 K) of 0.0137, a solubility (mole fraction) (in methanol, 283.15 K) of 0.0157 and a solubility (mole fraction) (in methanol, 285.65 K) of 0.0182. For the same compound, the solubility (mole fraction) (in methanol, 288.15 K) was 0.0206, the solubility (mole fraction) (in methanol, 290.65 K) was 0.0232 and the solubility (mole fraction) (in methanol, 293.15 K) was 0.0258. It also gave a solubility (mole fraction) (in methanol, 295.65 K) of 0.0288, a solubility (mole fraction) (in methanol, 298.15 K) of 0.0315 and a solubility (mole fraction) (in methanol, 300.65 K) of 0.0343. For the same compound, the solubility (mole fraction) (in methanol, 303.15 K) was 0.0376, the solubility (mole fraction) (in water, 278.15 K) was 1.6e-06 and the solubility (mole fraction) (in water, 280.65 K) was 2.03e-06. It also gave a solubility (mole fraction) (in water, 283.15 K) of 2.45e-06, a solubility (mole fraction) (in water, 285.65 K) of 2.88e-06 and a solubility (mole fraction) (in water, 288.15 K) of 3.91e-06. It also gave a solubility (mole fraction) (in water, 290.65 K) of 4.85e-06, a solubility (mole fraction) (in water, 293.15 K) of 5.85e-06 and a solubility (mole fraction) (in water, 295.65 K) of 6.98e-06. For the same compound, the solubility (mole fraction) (in water, 298.15 K) was 8.68e-06, the solubility (mole fraction) (in water, 300.65 K) was 1.07e-05 and the solubility (mole fraction) (in water, 303.15 K) was 1.29e-05.
